Results reported in patent US9993002B2, “1,2,3-thiadiazol-5yl-urea derivatives, use thereof for regulating plant senescence and preparations containing these derivatives” (USTAV EXPERIMENTALNI BOTANIKY AV CR, V.V.I., priority 2014, dated 2018).

Columns and labels:
[1] = test system: detached leaves of Triticum aestivum cv. Hereward; assay: Membrane lipid peroxidation (MDA, TBA method) in detached wheat leaves in the dark; conditions: for MDA: four days in the dark
Method: A typical symptom associated with senescence as a direct consequence of increased reactive oxygen species is membrane lipid peroxidation which produces malondialdehyde (MDA). Therefore the levels of MDA, a decomposition product of lipid peroxidation, were measured in detached wheat leaves that were exposed to the prepared novel derivatives or BAP for four days in the dark as described in Example 7. MDA levels were measured using a thiobarbituric acid (TBA) method. In detail, 100 mg of fresh plant material was homogenized by high speed shaking in a ball mill (MM301, Retsch, Germany) with 1 mL of 70% methanol. The crude extract was centrifuged at 10,000×g for 5 min, and 100 μL aliquot of supernatant was vortexed with 100 μL of 0.5% (w/v) TBA containing 0.1% (w/v) trichloroacetic acid, and the resulting solution was then incubated for 30 min at 95° C. The samples were quickly cooled on ice and centrifuged for 5 min at 1000 g. The absorbance of supernatant was measured at 532 nm with background subtraction at 600 nm and the amount of MDA-TBA complex was calculated from the coefficient of absorbance 155 mM^−1 cm^−1.

[2] = test system: detached leaf segments of Triticum aestivum cv. Hereward; assay: Senescence bioassay on wheat leaf segments in dark/light conditions; conditions: foliar, 168 h, read-out: Senescence bioassay (IC50)
Method: (§1) Seeds of winter wheat, Triticum aestivum cv. Hereward, were washed under running water for 24 hours and then sown on perlite soaked with Hogland's solution. They were placed in the growth chamber at 25° C. with a 16/8 h light period at 50 μmol·m^−2·s^−1. After 7 days, the first leaf was fully developed and the second leaf had started to grow. A tip section of the first leaf, approximately 4 cm long, was removed from 4 seedlings and trimmed slightly to a combined weight of 100 mg. The basal ends of the four leaf tips were placed into the 96-wells plate containing 150 μL of the tested derivative solution each. The entire plate was inserted into a plastic box lined with paper tissues soaked in distilled water to prevent leaf sections from drying out. After 96 h incubation in the dark at 25° C., the leaves were removed and chlorophyll extracted by heating at 80° C. for 10 min in 5 mL of 80% ethanol (v/v). The sample volume was then restored to 5 mL by the addition of 80% ethanol (v/v). The absorbance of the extract was recorded at 665 nm. In addition, chlorophyll extracts from fresh leaves and leaf tips incubated in deionised water were measured. The results are means of five replicates and the entire test was repeated at least twice. […] The compounds to be tested were dissolved in dimethylsulfoxide (DMSO) and the solution brought up to 10^−3 M with distilled water. […] The IC50 values were determined for standard (BAP) and novel tested compounds.
The ability of the novel compounds to retard chlorophyll degradation in detached wheat leaves was tested also in the light conditions. The experiment was performed as described in Example 7 with modifications as follows—the incubation of the leaves with the compounds was done in the dark/light conditions 8/16 (light—100 μmol·m^−2·s^−1) at 22° C. for 7 days. […] The newly prepared substituted 1,2,3-thiadiazol-5-yl urea derivatives of the invention are much stronger anti-senescent compounds in comparison to the BAP in retarding senescence under optimal (dark/light) conditions.

[3] = test system: detached leaf segments of Triticum aestivum cv. Hereward; assay: Senescence bioassay on wheat leaf segments in dark conditions; conditions: dark, 96 h, 25° C., chlorophyll absorbance 665 nm, read-out: Senescence bioassay (IC50)
Method: as §1

[4] = test system: Arabidopsis thaliana (wild-type Col-0); assay: Root growth and lateral root formation of Arabidopsis; format: in vivo; conditions: 10 nM; for Lateral root number / Primary root lenght: two weeks after transfer
Method: To investigate in vivo effect of the new derivatives on the root growth and development, seeds of Arabidopsis thaliana (wild-type Col-0) were surface sterilized and sown on vertical plates on half-strength Murashige-Skoog medium (supplied with 0.1% sucrose and 6 g/L phytagel) containing 10 nM BAP or 10 nM 1,2,3-thiadiazol-5-yl-urea derivative, or 0.01% DMSO (solvent control). After vernalization (4 days in the dark, 4° C.) plates were transferred into the growth chamber (22° C., 16/8 light/dark). Two weeks after transfer, seedlings were photographed and root elongation and lateral root formation was scored using Scion image software (Scion Corp., Frederick, Md., USA). At least 40 plants were measured for each treatment.

wheat leaves = assay: Ethylene production (defoliating activity) assay; set-up: species or system Triticum aestivum; conditions: 10 μM; for Ethylene produced: 96 h in the dark at 25° C., control 270 (±15)
Method: We investigated the effect of the compounds of the invention on ethylene production in wheat leaves. The leaves were obtained as described in Example 8, placed in 5 mL glass vials and immersed at 10 μM solutions of tested compounds of the invention or TDZ. Distilled water was used as a control treatment. After 96 h incubation in the dark at 25° C., 1 mL of air was taken from the vials and content of ethylene in it was determined using gas chromatography with the flame ionization detector (GC-FID) method described by Fišerová et al. (Fišerová H, Kula E, Klemš M, Reinöhl V (2001) Phytohormones as indicators of the degree of damage in birch (Betula pendula). Biológia 56: 405-409).

[5] = Toxicity towards human skin fibroblasts (Calcein AM assay); format: cell-based
Method: Cytotoxicity of the compounds to human skin fibroblasts (BJ cell line) was determined in a standard Calceinovém AM test. Cells were maintained in plastic tissue culture flasks and grown in Dulbecco's modified Eagle's medium for cell culture (DMEM) at 37° C. in 5% CO2 and 100% humidity. Cells were placed into 96-well microtiter plates (Nunc, Denmark) and after 12 hours pre-incubation, the tested compound was added to a final concentration ranging from […]. Cells were incubated for 72 hours. At the end of incubation period Calcein AM was added in PBS to a final concentration of […]. After 1 hour of incubation fluorescence was measured at 485/538 nm (ex/em wavelength) using Fluoroskan Ascent (Labsystems, Finland). IC50 values (the concentration causing reduction of calcein AM conversion to 50%) were calculated from the curves obtained. All experiments were repeated four times with a maximum deviation of 15%. Due to the limited solubility of substances in water, all the tested compounds were dissolved in DMSO and diluted with water to a final concentration.

[6] = dark/light 8/16, 22° C., 7 days

Compound | IC50 [2, 6] [µM] | IC50 ([3]; Triticum aestivum, foliar) [µM] | MDA [1] | Lateral root number [4] | Primary root lenght [4] | Ethylene produced (wheat leaves) | CC50 at 72 h [5] [µM] | also measured
c1ccc(CNc2ncnc3nc[nH]c23)cc1 [6-benzylaminopurine (BAP), 6-benzylaminopurine, reference compound] | 123 | 155 | 19.1 (±1.7) nmol/g FW | 3.6 (±2) | 15 (±5) mm | – | – | effect on peroxidation of membrane lipids (in words) ([1]; compared to untreated control): does not decrease the peroxidation of membrane lipids significantly; root development (in words) [4]: severely and significantly retarded
O=C(NCCCO)Nc1cnns1 [Compound 2, 1-(3-hydroxy-propyl)-3-[1,2,3]thiadiazol-5-yl-urea] | 0.31 | 9.1 | 16.4 (±1.6) nmol/g FW | 12 (±6) | 39 (±9) mm | 293 (±21) nL/g FW | > 100 | –
O=C(NCCO)Nc1cnns1 [Compound 1, 1-(2-hydroxy-ethyl)-3-[1,2,3]thiadiazol-5-yl-urea] | – | 26 | – | – | – | – | – | –
O=C(Nc1ccccc1)Nc1cnns1 [TDZ, thidiazuron, reference compound] | – | – | – | 2.1 (±2) | 10 (±4) mm | 628 (±45) nL/g FW | – | elevation of ethylene production compared to untreated control (wheat leaves; 96 h): 133%; times higher production of ethylene than the novel tested compounds (wheat leaves; 96 h): at least 5 times; IC50 [2]: 1.1 µM
1-(thiophen-2-yl-methyl)-3-[1,2,3]thiadiazol-5-yl-urea [Compound 78] | – | – | – | – | – | – | – | IC50 [3]: 45 µM
COCCCCCCNC(=O)Nc1cnns1 [Compound 10, 1-(6-methoxy-hexyl)-3-[1,2,3]thiadiazol-5-yl-urea] | – | 45 | – | – | – | – | – | –
1-(3,4-dihydro-2H-pyran-2-yl-methyl)-3-[1,2,3]thiadiazol-5-yl-urea [Compound 82] | – | – | – | – | – | – | – | IC50 [3]: 25 µM
O=C(NCCS)Nc1cnns1 [Compound 34, 1-(2-thio-ethyl)-3-[1,2,3]thiadiazol-5-yl-urea] | – | – | – | – | – | – | – | IC50 [3]: 18 µM
O=C(NCCCS)Nc1cnns1 [Compound 35, 1-(3-thio-propyl)-3-[1,2,3]thiadiazol-5-yl-urea] | – | – | – | – | – | – | – | IC50 [3]: 12 µM
1-(thiophen-2-yl-methyl)-3-[1,2,3]thiadiazol-5-yl-urea [Compound 76] | – | – | – | – | – | – | – | IC50 [3]: 32 µM
COCCCCNC(=O)Nc1cnns1 [Compound 8, 1-(4-methoxy-butyl)-3-[1,2,3]thiadiazol-5-yl-urea] | – | 25.5 | – | – | – | – | – | –
O=C(NCCCCCCBr)Nc1cnns1 [Compound 74, 1-(6-bromo-hexyl)-3-[1,2,3]thiadiazol-5-yl-urea] | – | – | – | – | – | – | – | level of membrane lipid peroxidation during dark senescence reduced to ([1]; compared to untreated control): 50.2%
COCCCCCNC(=O)Nc1cnns1 [Compound 9, 1-(5-methoxy-pentyl)-3-[1,2,3]thiadiazol-5-yl-urea] | – | 31 | – | – | – | – | – | –

Continued, in another order:

IC50 [2, 6] [µM] | IC50 ([3]; Triticum aestivum, foliar) [µM] | Compound | MDA [1] | Lateral root number [4] | Primary root lenght [4] | Ethylene produced (wheat leaves) | CC50 at 72 h [5] [µM] | also measured
0.61 | 12.6 | C/C(=C\CNC(=O)Nc1cnns1)CO [Compound 20, 1-((E)-4-hydroxy-3-methyl-but-2-enyl)-3-[1,2,3]thiadiazol-5-yl-urea] | 15.8 (±0.7) nmol/g FW | 11 (±6) | 32 (±9) mm | 254 (±22) nL/g FW | > 100 | effect on ethylene evolution compared to control (in words) (wheat leaves; 96 h): inhibition of ethylene evolution
0.1 | 3.5 | CC(O)CNC(=O)Nc1cnns1 (stereo not shown) [Compound 25, 1-(2-Hydroxy-propyl)-3-[1,2,3]thiadiazol-5-yl-urea] | 12.6 (±0.83) nmol/g FW | 12 (±8) | 35 (±0.8) mm | 281 (±31) nL/g FW | > 100 | –
0.42 | 11.2 | O=C(NCC1CCCO1)Nc1cnns1 (stereo not shown) [Compound 75, 1-(tetrahydro-furan-2-yl-methyl)-3-[1,2,3]thiadiazol-5-yl-urea] | 15.2 (±0.7) nmol/g FW | 17 (±6) | 44 (±16) mm | 282 (±19) nL/g FW | > 100 | –
– | 3.1 | CSCCNC(=O)Nc1cnns1 [Compound 39, 1-(2-methylthio-ethyl)-3-[1,2,3]thiadiazol-5-yl-urea] | – | – | – | – | – | –
– | 10.5 | CSCCCCCNC(=O)Nc1cnns1 [Compound 42, 1-(5-methylthio-pentyl)-3-[1,2,3]thiadiazol-5-yl-urea] | – | – | – | – | – | –
0.43 | 8.6 | COCC(C)NC(=O)Nc1cnns1 (stereo not shown) [Compound 28, 1-(2-methoxy-1-methyl-ethyl)-3-[1,2,3]thiadiazol-5-yl-urea] | 13.9 (±0.9) nmol/g FW | 16 (±7) | 41 (±13) mm | 246 (±12) nL/g FW | > 100 | effect on ethylene evolution compared to control (in words) (wheat leaves; 96 h): inhibition of ethylene evolution
– | 22 | C#CCNC(=O)Nc1cnns1 [Compound 55, 1-prop-2-ynyl-3-[1,2,3]thiadiazol-5-yl-urea] | 14.1 (±1.1) nmol/g FW | 15 (±8) | 40 (±10) mm | – | > 100 | –
0.25 | 7.1 | C=CCNC(=O)Nc1cnns1 [Compound 50, 1-Allyl-3-[1,2,3]thiadiazol-5-yl-urea] | 17.4 (±1.3) nmol/g FW | 14 (±10) | 42 (±12) mm | 279 (±18) nL/g FW | > 100 | –
– | 97 | CC(C)=CCNC(=O)Nc1cnns1 [Compound 21, 1-(3-methyl-but-2-enyl)-3-[1,2,3]thiadiazol-5-yl-urea] | – | – | – | – | – | –
0.16 | 2.9 | COC(CNC(=O)Nc1cnns1)OC [Compound 16, 1-(2,2-dimethoxy-ethyl)-3-[1,2,3]thiadiazol-5-yl-urea] | 11.6 (±1.2) nmol/g FW | 19 (±9) | 45 (±9) mm | 267 (±23) nL/g FW | > 100 | –
